Measured values reported in PMC8956739, “A synthetic lipopeptide targeting top-priority multidrug-resistant Gram-negative pathogens” (Nature Communications, 2022).
In brackets after ≈: the same amount, converted by molar mass. Several values for one entry are separate records, joined by “and”; a condition that tells them apart may be missing. Equal entries are not always repeated. Where two headings read alike, the source gives them in different places. Residues, ends and D or L forms follow the SMILES beside them.

Key:
[1] = Cell viability after 24 h treatment; format: cell-based, human; settings: human, KCNJ16 knockout HK-2 cells (kidney proximal tubular), Cell viability, KCNJ16 KO, KCNJ16 knockout HK-2 cells, 24 h, Fig. 6b
Description: (§1) Fig. 6 Transcriptomic changes in human kidney proximal tubular HK-2 cells following treatments with polymyxin B (PMB), colistin (COL), F287, F319, and F365. a Numbers of differentially expressed genes. Distinctive intersections are color-coded. b Cell viability difference (two-tailed Student’s t-test, n = 4 biologically independent cells, Benjamini–Hochberg adjusted P-values) between wild-type HK-2 and KCNJ16 knockout (KO) cells following 24 h treatment with lipopeptides. n.s., not significant; ^*adjusted P < 0.05, ^**adjusted P < 0.01, ^***adjusted P < 0.001. Data are shown as mean ± s.d. and individual data points. c Extracted transcriptional regulatory network from Signor database with 1-step neighbor constraints (enlarged for detail). Source data are provided as a Source Data file.

[2] = tested on: MDR clinical isolates of P. aeruginosa (n = 213, 55 carbapenem-resistant); format: cell-based, Pseudomonas aeruginosa
Summary of the method: (§2)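 Susceptibility: microdilution MIC in CaMHB.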

[3] = tested on: P. aeruginosa FADDI-PA038; format: cell-based, Pseudomonas aeruginosa; settings: FADDI-PA038
Summary of the method: as §2

[4] = tested on: P. aeruginosa FADDI-PA025; format: cell-based, Pseudomonas aeruginosa; settings: FADDI-PA025
Summary of the method: as §2

P. aeruginosa ATCC 27853 = format: cell-based, Pseudomonas aeruginosa; settings: ATCC 27853
Summary of the method: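 Each strain is tested in cation-adjusted Mueller–Hinton broth using the micro-dilution technique, and growth inhibition gives the MIC.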

A. baumannii AB5075 = experiment: In vitro passaging, emergence of resistance; format: cell-based, Acinetobacter baumannii; settings: for OD600: 8 ug/mL
Description: Log-phase cultures (OD600 = 0.5, ~10^8 CFU/mL) of A. baumannii AB5075 were inoculated (1:10, v/v) in 200 μL fresh CaMHB (cation-adjusted Mueller–Hinton broth) containing 2, 8 and 16 μg/mL polymyxin B, colistin, F287, and F365 in a 96-well microplate with 4 biological replicates. The cultures were incubated at 37 °C for 12 h before the next dilution (1:10, v/v) with fresh CaMHB. Successive subculturing was conducted for 7 days.

in vitro = format: cell-based, human; settings: human, wild-type HK-2 cells (kidney proximal tubular), Cell viability, WT
Description: as §1

HK-2 cells = experiment: Transcriptomic analysis (RNA-Seq) of kidney cells; format: cell-based, human; settings: for logFC, differential gene expression for all genes / log2FC / Fold Change: HK-2 RNA-Seq; for log2FC: Fig. 5f; for Fold Change: Fig. 5e; for num.of.degs: number of differentially expressed genes per peptide, Fig. 6a
Description: Human Kidney-2 (HK-2) cells (CRL-2190™, American Type Culture Collection) were treated with 100 μM colistin, F287, F319, and F365 for 24 h. Previous transcriptomic data of HK-2 cells following 24 h treatment with polymyxin B[26] were also employed for comparative bioinformatic analysis. RNA extraction was conducted as described above. Raw reads were aligned to genome GRCh38.94 (Ensembl genome database, http://ftp.ensembl.org/pub/release-94/fasta/homo_sapiens/dna/) using […] and summarized by featureCounts. Differentially expressed genes were determined using limma 3.46.0, with a combination of fold change ≥ 1.5 and FDR (by Benjamini–Hochberg algorithm) adjusted P-value ≤ 0.05 (n = 3). Key regulatory genes of HK-2 were analyzed in the context of signaling network in the Signor 2.0 database. Enrichment analysis of gene differential expression in HK-2 cells was conducted using enrichR 2.1. UpSetR 1.4.0, ComplexHeatmap 2.6.2, circlize 0.4.13 and iGraph 1.2.11 were used for data visualization. Raw data were deposited in the Short Reads Archive database under accession numbers SRR15239061-SRR15239078.

[5] = Rep1, replicate 1, read-out: Cell viability, KCNJ16 KO, Rep1
[6] = Rep2, replicate 2, read-out: Cell viability, KCNJ16 KO, Rep2
[7] = Rep3, replicate 3, read-out: Cell viability, KCNJ16 KO, Rep3
[8] = Rep4, replicate 4, read-out: Cell viability, KCNJ16 KO, Rep4
[9] = MDR clinical isolates of (n = 213, 55 carbapenem-resistant)
[10] = locus chr1 629640-630683 (ENSG00000225630 by coordinates)

In the case of `CCCCCCCC(=O)N[C@@H](CCN)C(=O)N[C@H](C(=O)N[C@@H](CN)C(=O)N[C@H]1CCNC(=O)[C@H]([C@@H](C)O)NC(=O)[C@H](CCN)NC(=O)[C@H](CCN)NC(=O)[C@H](CC)NC(=O)[C@@H](CC(C)C)NC(=O)[C@H](CCN)NC1=O)[C@@H](C)O` [Lipopeptide F287] (HELM PEPTIDE1{[CCCCCCCC(=O)[*:2]].[Dab].T.[NC[C@H](N[*:1])C(=O)[*:2]].[Dab].[Dab].[dL].[Abu].[Dab].[Dab].T}$PEPTIDE1,PEPTIDE1,5:R3-11:R2$$$V2.0), the viability at 24 h [1, 5] is reported as 91.7%, the viability at 24 h [1, 6] is reported as 77.1% and the viability at 24 h [1, 7] is reported as 82.8%. It also gave a viability at 24 h [1, 8] of 69.6%, an MIC50 [2, 9] of 1 mg/L (≈ 0.898 µM) and an MIC90 [2, 9] of 1 mg/L (≈ 0.898 µM). The Number of isolates ([2]; isolates with MIC 0.05 μg/mL (so in the source)) was 0, the Number of isolates ([2]; isolates with MIC 0.125 μg/mL (so in the source)) was 0 and the Number of isolates ([2]; isolates with MIC 0.25 μg/mL (so in the source)) was 7. It also gave a Number of isolates ([2]; isolates with MIC 0.5 μg/mL (so in the source)) of 26, a Number of isolates ([2]; isolates with MIC 1 μg/mL (so in the source)) of 168 and a Number of isolates ([2]; isolates with MIC 2 μg/mL (so in the source)) of 9. The Number of isolates ([2]; isolates with MIC 4 μg/mL (so in the source)) was 0, the Number of isolates ([2]; isolates with MIC 8 μg/mL (so in the source)) was 1 and the Number of isolates ([2]; isolates with MIC 16 μg/mL (so in the source)) was 0. It also gave a Number of isolates ([2]; isolates with MIC 32 μg/mL (so in the source)) of 2, a Number of isolates ([2]; isolates with MIC 64 μg/mL (so in the source)) of 0 and a Number of isolates ([2]; isolates with MIC >64 μg/mL (so in the source)) of 0. For the same molecule, the “MIC P. aeruginosa FADDI-PA038” value [3] was 0.5 mg/L (≈ 0.449 µM), the “MIC P. aeruginosa FADDI-PA025” value [4] was 2 mg/L (≈ 1.8 µM) and the “MIC P. aeruginosa ATCC 27853” value (P. aeruginosa ATCC 27853) was 0.5 mg/L (≈ 0.449 µM). The MIC, No Survanta (P. aeruginosa ATCC 27853) was 1 mg/L (≈ 0.898 µM), the OD600 (A. baumannii AB5075; time 0 h, passage 0, replicates rep1-rep4, raw OD600 (blank OD600 0.125333)) was 0.15 and 0.135 and 0.14 and the OD600 (A. baumannii AB5075; time 12 h, passage 1, replicates rep1-rep4, raw OD600 (blank OD600 0.114667)) was 0.134 and 0.126 and 0.13 and 0.129. The OD600 (A. baumannii AB5075; time 24 h, passage 2, replicates rep1-rep4, raw OD600 (blank OD600 0.0956667)) was 0.091 and 0.089 and 0.086, the OD600 (A. baumannii AB5075; time 36 h, passage 3, replicates rep1-rep4, raw OD600 (blank OD600 0.088)) was 0.088 and 0.089 and 0.095 and the OD600 (A. baumannii AB5075; time 48 h, passage 4, replicates rep1-rep4, raw OD600 (blank OD600 0.104667)) was 0.095 and 0.092 and 0.093 and 0.111. For the same molecule, the OD600 (A. baumannii AB5075; time 60 h, passage 5, replicates rep1-rep4, raw OD600 (blank OD600 0.122333)) was 0.105 and 0.107 and 0.117, the OD600 (A. baumannii AB5075; time 72 h, passage 6, replicates rep1-rep4, raw OD600 (blank OD600 0.095)) was 0.097 and 0.09 and 0.087 and the OD600 (A. baumannii AB5075; time 84 h, passage 7, replicates rep1-rep4, raw OD600 (blank OD600 0.091)) was 0.094 and 0.097 and 0.099 and 0.113. The OD600 (A. baumannii AB5075; time 96 h, passage 8, replicates rep1-rep4, raw OD600 (blank OD600 0.0953333)) was 0.111 and 0.113 and 0.11 and 0.117, the OD600 (A. baumannii AB5075; time 108 h, passage 9, replicates rep1-rep4, raw OD600 (blank OD600 0.100667)) was 0.115 and 0.107 and 0.116 and the OD600 (A. baumannii AB5075; time 120 h, passage 10, replicates rep1-rep4, raw OD600 (blank OD600 0.0983333)) was 0.108 and 0.113 and 0.118. The OD600 (A. baumannii AB5075; time 132 h, passage 11, replicates rep1-rep4, raw OD600 (blank OD600 0.0843333)) was 0.121 and 0.108 and 0.118 and 0.122, the OD600 (A. baumannii AB5075; time 144 h, passage 12, replicates rep1-rep4, raw OD600 (blank OD600 0.091)) was 0.116 and 0.114 and 0.12 and the OD600 (A. baumannii AB5075; time 156 h, passage 13, replicates rep1-rep4, raw OD600 (blank OD600 0.129)) was 0.118 and 0.12 and 0.113 and 0.116. The OD600 (A. baumannii AB5075; time 168 h, passage 14, replicates rep1-rep4, raw OD600 (blank OD600 0.101)) was 0.096 and 0.095 and 0.092 and 0.117, the “time to emergence of resistance” value (A. baumannii AB5075; 4× MIC, 7-day passaging) was at most 3 days and the “growth over 7 days” value (A. baumannii AB5075; 32× MIC) was “No growth”. The viability at 24 h (in vitro; Rep1) was 52%, the viability at 24 h (in vitro; Rep2) was 54.3% and the viability at 24 h (in vitro; Rep4) was 47%. The “logFC, differential gene expression for all genes” value (HK-2 cells; Geneid ENSG00000223972) was -1.073, the “logFC, differential gene expression for all genes” value (HK-2 cells; Geneid ENSG00000227232) was -0.08434 and the “logFC, differential gene expression for all genes” value (HK-2 cells; Geneid ENSG00000233750) was -0.6124. The “logFC, differential gene expression for all genes” value (HK-2 cells; Geneid ENSG00000278267) was 0.2137, the log2FC (HK-2 cells; gene ENSG00000017483 SLC38A5) was 0.6808 and the log2FC (HK-2 cells; gene ENSG00000023445 BIRC3) was -0.3448. The log2FC (HK-2 cells; gene ENSG00000056558 TRAF1) was 0.757, the log2FC (HK-2 cells; gene ENSG00000066468 FGFR2) was -1.141 and the “Fold Change” value (HK-2 cells; locus chr1 629062-629433 (ENSG00000225972 by coordinates)) was 0.9117. For the same molecule, the “Fold Change” value (HK-2 cells; [10]) was 0.9406 and the num.of.degs (HK-2 cells) was 1076.
`CCCCCCCC(=O)N[C@@H](CCN)C(=O)N[C@H](C(=O)N[C@@H](CCN)C(=O)N[C@H]1CCNC(=O)[C@H]([C@@H](C)O)NC(=O)[C@H](CCN)NC(=O)[C@H](CCN)NC(=O)[C@H](CC)NC(=O)[C@@H](CC(C)C)NC(=O)[C@H](CCN)NC1=O)[C@@H](C)O` [Lipopeptide F319] (HELM PEPTIDE1{[CCCCCCCC(=O)[*:2]].[Dab].T.[Dab].[Dab].[Dab].[dL].[Abu].[Dab].[Dab].T}$PEPTIDE1,PEPTIDE1,5:R3-11:R2$$$V2.0) gave a viability at 24 h [1, 5] of 104%, a viability at 24 h [1, 6] of 95.5% and a viability at 24 h [1, 7] of 91.1%. For the same molecule, the viability at 24 h [1, 8] was 92.6%, the “MIC P. aeruginosa FADDI-PA038” value [3] was 4 mg/L (≈ 3.55 µM) and the “MIC P. aeruginosa FADDI-PA025” value [4] was 4 mg/L (≈ 3.55 µM). The “MIC P. aeruginosa ATCC 27853” value (P. aeruginosa ATCC 27853) was 0.5 mg/L (≈ 0.443 µM), the MIC, No Survanta (P. aeruginosa ATCC 27853) was 1 mg/L (≈ 0.887 µM) and the viability at 24 h (in vitro; Rep1) was 79%. For the same molecule, the viability at 24 h (in vitro; Rep2) was 79.1%, the viability at 24 h (in vitro; Rep3) was 78.8% and the viability at 24 h (in vitro; Rep4) was 70.1%. For the same molecule, the “logFC, differential gene expression for all genes” value (HK-2 cells; Geneid ENSG00000223972) was -0.1551, the “logFC, differential gene expression for all genes” value (HK-2 cells; Geneid ENSG00000227232) was -0.02116 and the “logFC, differential gene expression for all genes” value (HK-2 cells; Geneid ENSG00000233750) was -0.4424. The “logFC, differential gene expression for all genes” value (HK-2 cells; Geneid ENSG00000278267) was 0.1872, the log2FC (HK-2 cells; gene ENSG00000017483 SLC38A5) was 0.557 and the log2FC (HK-2 cells; gene ENSG00000023445 BIRC3) was -0.6344. For the same molecule, the log2FC (HK-2 cells; gene ENSG00000056558 TRAF1) was 0.7378, the log2FC (HK-2 cells; gene ENSG00000066468 FGFR2) was -1.084 and the “Fold Change” value (HK-2 cells; [10]) was 0.3467. The “Fold Change” value (HK-2 cells; locus chr1 632757-633438 (ENSG00000229344 by coordinates)) was 0.6059 and the num.of.degs (HK-2 cells) was 763.
